This passage reports EC50 results from patent US9474790B2, “Stable, protracted GLP-1/glucagon receptor co-agonists for medical use” (Novo Nordisk A/S, priority 2013, dated 2016).

Numbered stars: 1 amine (or outer) side, 2 acyl side, 3 side chain; on linkers, the order of the positions; unused ones are H or OH. Bridge positions count the residues as written; N and C are the ends. Square brackets hold non-standard residues; d marks the D form. Side chains are listed from the residue outwards. Peptide text beside a SMILES is read from it. I, II: the chains in the order shown. * marks the point of attachment. C18 diacid = O=C(O)CCCCCCCCCCCCCCCCC(=O)*; γGlu = O=C(O)[C@H](CCC(=O)[*:2])N[*:1]; Ac4c = NC1(C(=O)O)CCC1; AEEA = NCCOCCOCC(=O)O; Aib = CC(C)(N)C(=O)O

The target in one assay is T1, human GLP-1 receptor (Homo sapiens, UniProt P43220).
T1 construct: expressed in transfected cells; host or cells: BHK cells (parent BHKTS13), clone FCW467-12A/KZ10-1, with CRE luciferase
As to the kind of experiment: GLP-1 receptor potency, CRE luciferase reporter gene assay in BHK cells. The format is cell-based. Conditions: BHK cells expressing human GLP-1 receptor, read-out: EC50 GLP-1R. The method in brief: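 BHK cells stably expressing human GLP-1 receptor with CRE-luciferase reporter, 5×10EE3 cells/well in phenol red-free DMEM with 10 mM Hepes, 2% ovalbumin, 0.2% Pluronic F-68. Compounds at final 1×10EE-6 to 1×10EE-13 M, 3 h at 37° C; steadylite luminescence; EC50 by four-parameter fit, in pM.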

A further assay deals with T2, human glucagon receptor (Homo sapiens, UniProt P47871).
T2 construct: expressed in transfected cells; host or cells: BHK cells (parent BHK570, CRE luciferase clone BHK/KZ10-20-48), clone pLJ6'-4-25
Nature of the assay: Glucagon receptor potency, CRE luciferase reporter gene assay in BHK cells. The class given is cell-based. The following applies: BHK cells expressing human glucagon receptor, read-out: EC50 GlucR. The method in brief: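 Stably transfected BHK cells (BHK570 background) expressing human glucagon receptor with CRE-firefly luciferase reporter, 5×10EE3 cells/well in DMEM/HEPES with 2% ovalbumin and 0.2% Pluronic F-68. Compounds 1×10EE-13 to 1×10EE-6 M final, 3 h at 37 °C; luminescence read, EC50 from four-parameter fit, in pM.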

T2 sequence (P47871 26-477): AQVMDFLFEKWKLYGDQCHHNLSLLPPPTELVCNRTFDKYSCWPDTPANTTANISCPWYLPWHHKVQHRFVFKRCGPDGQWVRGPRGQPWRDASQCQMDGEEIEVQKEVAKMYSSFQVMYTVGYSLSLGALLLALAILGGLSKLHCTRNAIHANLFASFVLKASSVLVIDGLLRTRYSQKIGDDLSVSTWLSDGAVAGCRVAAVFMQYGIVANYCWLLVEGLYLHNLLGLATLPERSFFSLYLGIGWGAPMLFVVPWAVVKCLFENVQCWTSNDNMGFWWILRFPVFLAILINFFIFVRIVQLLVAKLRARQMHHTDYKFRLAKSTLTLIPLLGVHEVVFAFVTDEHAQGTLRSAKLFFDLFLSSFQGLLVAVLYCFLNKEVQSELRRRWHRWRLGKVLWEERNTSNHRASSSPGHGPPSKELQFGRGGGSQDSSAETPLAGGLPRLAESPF
T1 sequence (P43220 24-463): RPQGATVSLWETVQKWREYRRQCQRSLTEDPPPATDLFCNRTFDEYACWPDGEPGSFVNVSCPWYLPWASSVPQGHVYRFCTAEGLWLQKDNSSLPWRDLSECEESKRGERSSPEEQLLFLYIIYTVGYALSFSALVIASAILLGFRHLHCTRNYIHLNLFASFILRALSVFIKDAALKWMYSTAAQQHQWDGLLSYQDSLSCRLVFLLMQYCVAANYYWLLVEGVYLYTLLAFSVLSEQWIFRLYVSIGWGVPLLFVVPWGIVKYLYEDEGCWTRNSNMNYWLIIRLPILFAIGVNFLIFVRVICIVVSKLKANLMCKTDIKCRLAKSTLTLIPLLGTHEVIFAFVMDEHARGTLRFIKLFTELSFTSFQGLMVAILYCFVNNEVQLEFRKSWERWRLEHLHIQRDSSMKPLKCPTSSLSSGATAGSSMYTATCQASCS

For the compound `CC(C)C[C@H](NC(=O)[C@H](Cc1ccc(O)cc1)NC(=O)[C@H](CCCCN)NC(=O)[C@H](CO)NC(=O)[C@H](CC(C)C)NC(=O)[C@H](CC(=O)O)NC(=O)[C@H](CO)NC(=O)[C@@H](NC(=O)[C@H](Cc1ccccc1)NC(=O)[C@@H](NC(=O)CNC(=O)[C@H](Cc1c[nH]cn1)NC(=O)C(C)(C)NC(=O)[C@@H](N)Cc1c[nH]cn1)[C@@H](C)O)[C@@H](C)O)C(=O)N[C@@H](CCC(=O)O)C(=O)N[C@@H](CO)C(=O)N[C@@H](CCCCN)C(=O)N[C@@H](CCCNC(=N)N)C(=O)N[C@@H](C)C(=O)N[C@@H](CCCNC(=N)N)C(=O)N[C@@H](CCC(=O)O)C(=O)N[C@@H](Cc1ccccc1)C(=O)N[C@H](C(=O)N[C@@H](CCC(N)=O)C(=O)N[C@@H](Cc1c[nH]c2ccccc12)C(=O)N[C@@H](CC(C)C)C(=O)N[C@@H](CC(C)C)C(=O)N[C@@H](CCCCNC(=O)CC[C@H](NC(=O)CC[C@H](NC(=O)CC[C@H](NC(=O)CCCCCCCCCCCCCCCCC(=O)O)C(=O)O)C(=O)O)C(=O)O)C(=O)N[C@H](C(N)=O)[C@@H](C)O)C(C)C` [Example 34, N^ε28-[(4S)-4-carboxy-4-[[(4S)-4-carboxy-4-[[(4S)-4-carboxy-4-(17-carboxyheptadecanoylamino)butanoyl]amino]butanoyl]amino]butanoyl]-[Aib2,His3,Leu10,Glu15,Lys17,Arg20,Glu21,Leu27,Lys28]-Glucagon amide] (H-H[Aib]HGTFTSDLSKYLESKRAREFVQWLLK([γGlu-γGlu-γGlu-C18 diacid])T-NH2; N-terminus assumed), the EC50 is 14.7 pM at human GLP-1 receptor and 2.9 pM at human glucagon receptor.

With `CC(C)C[C@H](NC(=O)[C@H](Cc1ccc(O)cc1)NC(=O)[C@H](CCCCN)NC(=O)[C@H](CO)NC(=O)[C@H](CC(C)C)NC(=O)[C@H](CC(=O)O)NC(=O)[C@H](CO)NC(=O)[C@@H](NC(=O)[C@H](Cc1ccccc1)NC(=O)[C@@H](NC(=O)CNC(=O)[C@H](CCC(N)=O)NC(=O)C1(NC(=O)[C@@H](N)Cc2c[nH]cn2)CCC1)[C@@H](C)O)[C@@H](C)O)C(=O)N[C@@H](CCC(=O)O)C(=O)N[C@@H](CO)C(=O)N[C@@H](CCCCN)C(=O)N[C@@H](CCCNC(=N)N)C(=O)N[C@@H](C)C(=O)N[C@@H](CCCNC(=N)N)C(=O)N[C@@H](CCC(=O)O)C(=O)N[C@@H](Cc1ccccc1)C(=O)N[C@H](C(=O)N[C@@H](CCC(N)=O)C(=O)N[C@@H](Cc1c[nH]c2ccccc12)C(=O)N[C@@H](CC(C)C)C(=O)N[C@@H](CC(C)C)C(=O)N[C@@H](CCCCNC(=O)CNC(=O)[C@H](CO)NC(=O)[C@H](CCC(=O)O)NC(=O)CNC(=O)[C@H](CO)NC(=O)CC[C@H](NC(=O)CC[C@H](NC(=O)CCCCCCCCCCCCCCCCC(=O)O)C(=O)O)C(=O)O)C(=O)N[C@H](C(N)=O)[C@@H](C)O)C(C)C` [Example 36, N^ε28-[2-[[(2S)-2-[[(2S)-4-carboxy-2-[[2-[[(2S)-2-[[(4S)-4-carboxy-4-[[(4S)-4-carboxy-4-(17-carboxyheptadecanoylamino)butanoyl]amino]butanoyl]amino]-3-hydroxypropanoyl]amino]acetyl]amino]butanoyl]amino]-3-hydroxypropanoyl]amino]acetyl]-[Acb2,Leu10,Glu15,Lys17, Arg20,Glu21,Leu27,Lys28]-Glucagon amide] (I: H-H[Ac4c]QGTFTSDLSKYLESKRAREFVQWLLKT-NH2 / II: {C18 diacid-γGlu-γGlu}-SGESG; amide I:28-II:C; N-terminus assumed), the EC50 on human GLP-1 receptor worked out at 2 pM; on human glucagon receptor it was 4 pM.

With `CC(C)C[C@H](NC(=O)[C@H](Cc1ccc(O)cc1)NC(=O)[C@H](CCCCN)NC(=O)[C@H](CO)NC(=O)[C@H](CC(C)C)NC(=O)[C@H](CC(=O)O)NC(=O)[C@H](CO)NC(=O)[C@@H](NC(=O)[C@H](Cc1ccccc1)NC(=O)[C@@H](NC(=O)CNC(=O)[C@H](Cc1c[nH]cn1)NC(=O)C(C)(C)NC(=O)[C@@H](N)Cc1c[nH]cn1)[C@@H](C)O)[C@@H](C)O)C(=O)N[C@@H](CCC(=O)O)C(=O)N[C@@H](CO)C(=O)N[C@@H](CCCNC(=N)N)C(=O)N[C@@H](CCCNC(=N)N)C(=O)N[C@@H](C)C(=O)N[C@@H](CCCNC(=N)N)C(=O)N[C@@H](CC(=O)O)C(=O)N[C@@H](Cc1ccccc1)C(=O)N[C@H](C(=O)N[C@@H](CCC(N)=O)C(=O)N[C@@H](Cc1c[nH]c2ccccc12)C(=O)N[C@@H](CC(C)C)C(=O)N[C@@H](CC(C)C)C(=O)N[C@@H](CCCCNC(=O)CNC(=O)[C@H](CO)NC(=O)[C@H](CCC(=O)O)NC(=O)CNC(=O)[C@H](CO)NC(=O)CC[C@H](NC(=O)CC[C@H](NC(=O)CCCCCCCCCCCCCCCCC(=O)O)C(=O)O)C(=O)O)C(=O)N[C@H](C(N)=O)[C@@H](C)O)C(C)C` [Example 37, N^ε28-[2-[[(2S)-2-[[(2S)-4-carboxy-2-[[2-[[(2S)-2-[[(4S)-4-carboxy-4-[[(4S)-4-carboxy-4-(17-carboxyheptadecanoylamino)butanoyl]amino]butanoyl]amino]-3-hydroxypropanoyl]amino]acetyl]amino]butanoyl]amino]-3-hydroxypropanoyl]amino]acetyl]-[Aib2,His3,Leu10,Glu15, Arg20,Leu27,Lys28]-Glucagon amide] (I: H-H[Aib]HGTFTSDLSKYLESRRARDFVQWLLKT-NH2 / II: {C18 diacid-γGlu-γGlu}-SGESG; amide I:28-II:C; N-terminus assumed), the 50% effective concentration (EC50) amounted to 4 pM on human GLP-1 receptor and 2 pM on human glucagon receptor.

Regarding `CC(C)C[C@H](NC(=O)[C@H](Cc1ccc(O)cc1)NC(=O)[C@H](CCCCN)NC(=O)[C@H](CO)NC(=O)[C@H](CC(C)C)NC(=O)[C@H](CC(=O)O)NC(=O)[C@H](CO)NC(=O)[C@@H](NC(=O)[C@H](Cc1ccccc1)NC(=O)[C@@H](NC(=O)CNC(=O)[C@H](CCC(N)=O)NC(=O)C(C)(C)NC(=O)[C@@H](N)Cc1c[nH]cn1)[C@@H](C)O)[C@@H](C)O)C(=O)N[C@@H](CCC(=O)O)C(=O)N[C@@H](CO)C(=O)N[C@@H](CCCNC(=N)N)C(=O)N[C@@H](CCCNC(=N)N)C(=O)N[C@@H](C)C(=O)N[C@@H](CCCNC(=N)N)C(=O)N[C@@H](CCC(=O)O)C(=O)N[C@@H](Cc1ccccc1)C(=O)N[C@H](C(=O)N[C@@H](CCC(N)=O)C(=O)N[C@@H](Cc1c[nH]c2ccccc12)C(=O)N[C@@H](CC(C)C)C(=O)N[C@@H](CC(C)C)C(=O)N[C@@H](CCCCNC(=O)CC[C@H](NC(=O)CC[C@H](NC(=O)CC[C@H](NC(=O)CCCCCCCCCCCCCCCCC(=O)O)C(=O)O)C(=O)O)C(=O)O)C(=O)N[C@H](C(N)=O)[C@@H](C)O)C(C)C` [Example 41, N^ε28-[(4S)-4-carboxy-4-[[(4S)-4-carboxy-4-[[(4S)-4-carboxy-4-(17-carboxyheptadecanoylamino)butanoyl]amino]butanoyl]amino]butanoyl]-[Aib2,Leu10,Glu15, Arg20,Glu21,Leu27,Lys28]-Glucagon amide] (H-H[Aib]QGTFTSDLSKYLESRRAREFVQWLLK([γGlu-γGlu-γGlu-C18 diacid])T-NH2; N-terminus assumed), the EC50 came out at 7 pM on human GLP-1 receptor and 29 pM on human glucagon receptor.

`CC(C)C[C@H](NC(=O)[C@H](Cc1ccc(O)cc1)NC(=O)[C@H](CCCCN)NC(=O)[C@H](CO)NC(=O)[C@H](CC(C)C)NC(=O)[C@H](CC(=O)O)NC(=O)[C@H](CO)NC(=O)[C@@H](NC(=O)[C@H](Cc1ccccc1)NC(=O)[C@@H](NC(=O)CNC(=O)[C@H](CCC(N)=O)NC(=O)C(C)(C)NC(=O)[C@@H](N)Cc1c[nH]cn1)[C@@H](C)O)[C@@H](C)O)C(=O)N[C@@H](CCC(=O)O)C(=O)N[C@@H](CO)C(=O)N[C@@H](CCCNC(=N)N)C(=O)N[C@@H](CCCNC(=N)N)C(=O)N[C@@H](C)C(=O)N[C@@H](CCCNC(=N)N)C(=O)N[C@@H](CCC(=O)O)C(=O)N[C@@H](Cc1ccccc1)C(=O)N[C@H](C(=O)N[C@@H](CCC(N)=O)C(=O)N[C@@H](Cc1c[nH]c2ccccc12)C(=O)N[C@@H](CC(C)C)C(=O)N[C@@H](CC(C)C)C(=O)N[C@@H](CCCCNC(=O)COCCOCCNC(=O)COCCOCCNC(=O)CC[C@H](NC(=O)CC[C@H](NC(=O)CC[C@H](NC(=O)CCCCCCCCCCCCCCCCC(=O)O)C(=O)O)C(=O)O)C(=O)O)C(=O)N[C@H](C(N)=O)[C@@H](C)O)C(C)C` [Example 42, N^ε28-[2-[2-[2-[[2-[2-[2-[[(4S)-4-carboxy-4-[[(4S)-4-carboxy-4-[[(4S)-4-carboxy-4-(17-carboxyheptadecanoylamino)butanoyl]amino]butanoyl]amino]butanoyl]amino]ethoxy]ethoxy]acetyl]amino]ethoxy]ethoxy]acetyl]-[Aib2,Leu10,Glu15,Arg20,Glu21,Leu27,Lys28]-Glucagon amide] (H-H[Aib]QGTFTSDLSKYLESRRAREFVQWLLK([AEEA-AEEA-γGlu-γGlu-γGlu-C18 diacid])T-NH2; N-terminus assumed): the results for the EC50 on human GLP-1 receptor and at human glucagon receptor were 3 pM and 32 pM, respectively.
